# Assay results reported in patent US8334316B2, “Substituted organosulfur compounds and methods of using thereof” (ACEA Biosciences, Inc., priority 2004, dated 2012).
# “And” between values parts separate entries of the source, which are not always exact repeats. Equal values may be shown once.
# Test system: mouse Lewis lung cancer
# Test: In vivo antitumor efficacy, mouse Lewis lung cancer model (subcutaneously transplanted), Example 1
# Protocol: Test controls. For the negative control, two groups were set up: the solvent only control group and normal saline control group. […] In the normal saline group, each mouse was administered with 0.5 ml of normal saline, once per day and for 7 or 10 consecutive days. For the positive control group, the anticancer compound, cyclophosphamide (CTX) was administered intraperitoneally at 30 mg/kg, once per day and for 7 or 10 consecutive days.
# In the mouse Lewis lung cancer model, 200 mg of DBTS was dissolved in 5 mL castor oil (in polyoxyethlated version). […] The intravenous injection speed was about 0.5 mL/0.5 min.
# The dosages and administration of test compounds are within the knowledge of those commonly skilled in pharmacology. For example, the test compounds may be administered by intravenous injection with a test compound solution twice per day and for 7 consecutive days. Alternatively, the test compounds may be administered by intravenous injection with a test compound solution once per day and for 10 consecutive days.
# 0.2 mL of the tumor cell suspension (between 4 and 8 million tumor cells) was then transplanted back into an experimental mouse by subcutaneous injection. […] Each removed solid tumor was weighted, and the tumor inhibition rate in the DBTS-treated groups and in the CTX-treated group was calculated according to the formula: Tumor inhibition rate %=(average weight of tumor in the negative control group−average weight of tumor in the compound treated group)/average weight of tumor in the negative control group×100 (2)
# For the mouse Lewis lung cancer model, the Lewis lung cancer cells were subcutaneously transplanted at approximately 5 million cells per mouse. After 24 hours of the transplantation, each mouse in the test group was administered intravenously with dibenzyl trisulfide at 50, 25, or 12.5 mg/kg per day and for 10 consecutive days. For the positive control group, each mouse was administered with CTX at […] intraperitoneally per day and for 10 consecutive days. For the negative control group, each mouse was administered intravenously either with normal saline, or with the solvent for dibenzyl trisulfide at the same concentration as that in the test group per day and for consecutive 10 days. For each group, 10 mice were used.
smiles,measurement,setting,value
"c1ccc(CSSSCc2ccccc2)cc1 [DBTS, Dibenzyl trisulfide]",Inhibition rate (%),"12.5 mg/kg/d iv x10 qd, vs 5% solvent control",37.38% and 37.28%
same,Inhibition rate (%),"12.5 mg/kg/d iv x10 qd, vs normal saline control",45.21%
same,Inhibition rate (%),"25 mg/kg/d iv x10 qd, vs 5% solvent control",44.30%
same,Inhibition rate (%),"25 mg/kg/d iv x10 qd, vs normal saline control",51.34%
same,Inhibition rate (%),"50 mg/kg/d iv x10 qd, vs 5% solvent control",62.28%
same,Inhibition rate (%),"50 mg/kg/d iv x10 qd, vs normal saline control",67.05% and 65%
